Data on six compounds can be found in US11319330B2, “Tricyclic furan-substituted piperidinedione compound” (MEDSHINE DISCOVERY INC., priority 2018, dated 2022).

One may read the IC50 as the concentration at which inhibition is half-maximal. A lower IC50 goes with greater potency in that assay.

A short description of data set [1]: Pharmacokinetic properties of test compound in mice (oral). The data set is classed as in vivo, C57BL male mice. The note with it: mouse; for oral plasma systemic exposure (AUC0-inf), in words / pharmacokinetic properties in rodent mice, in words: oral. An excerpt:
In this study, C57BL male mice were selected as the test animals, and the LC/MS/MS method was used to quantitatively determine the drug concentration in the plasma of the test compound and the reference compound administered orally to evaluate the pharmacokinetic profile of the test compound in mice.
[…] (C57) mice (male, 20-30 g, 7-10 weeks old, from Beijing Vital River or Shanghai SLAC).
A clear solution or suspension of the test compound was administrated to C57 mice (fasted overnight) by oral gavage. Blood was collected from jugular vein at pre-dose and 0.5, 1, 2, 4, 6, 8, 24 hours post-dose, the collected blood samples were placed in an anticoagulant tube (Jiangsu Kangjian Medical Co., Ltd.) supplemented with EDTA-K2, and the mixture was vortexed and centrifuged at 13000 rpm for 10 minutes. The LC-MS/MS method was used to determine the plasma concentration, and the relevant pharmacokinetic parameters were calculated using the non-compartmental model linear logarithmic trapezoidal method by WinNonlin™ Version 6.3 (Pharsight, Mountain View, Calif.).

Data set [2] concerns human lymphoma OCI-LY10 cells. Description: In vivo pharmacodynamic study in subcutaneous xenograft tumor CB-17 SCID model of human lymphoma OCI-LY10 cells. Also noted: species or system CB-17 SCID mouse. Here is the method: Cells culture: Human lymphoma OCI-LY10 cells (National Cancer Institute) were cultured in a monolayer method in vitro (culture conditions: RPMI-1640 medium with 10% fetal bovine serum, 100 U/mL penicillin and 100 μg/mL streptomycin; 37° C., 5% CO2 incubator). Pancreatin-EDTA was used twice a week for conventional digestion and passage. When a cell saturation of 80%-90% and the required cell number were achieved, the cells were collected, counted and seeded. Animal: CB-17 SCID mouse, female, 6-8 weeks old, weighing 18-22 grams. 0.2 mL (10×10^6 cells) of OCI-LY10 cells (with matrigel in a volume ratio of 1:1) were subcutaneously inoculated on the right back of each mouse. The grouping and administration were started when the average tumor volume reached about 139 mm^3. One dosing cycle was seven days, and the compound was administered once a day with an interval of 24 hours. The test compound was administered orally for a total of four cycles. The dose of the test compound WX001 was 60 mg/kg. The tumor volume was measured twice a week with a two-dimensional caliper, expressed in cubic millimeters, and calculated by the following formula: V=0.5a×b^2, in which a and b were the long diameter and short diameter of the tumor, respectively. The anti-tumor efficacy was determined by dividing the average increase of tumor volume of animals treated with the compound by that of untreated animals. TGI: Tumor Growth Inhibition. TGI (%)=[1−(average tumor volume at the end of administration in a treatment group−average tumor volume at the beginning of administration in this treatment group)/(average tumor volume at the end of administration in the solvent control group−average tumor volume at the beginning of administration in the solvent control group)]×100%.
On the technique in general: Xenograft models place foreign cells or tissue in a host animal.

A further data set relates to OCI-LY10. Description: Anti-proliferative effect in lymphoma cell line OCI-LY10 (CellTiter-Glo). Particulars: Homo sapiens, OCI-Ly10, 120 h; incubate with the compound for 5 days. The format is cell-based. Here is the method:
Experiment object: In this experiment, the inhibitory effects of the test compounds on cell proliferation in the diffuse large B-cell lymphoma cell lines OCI-LY10 and DOHH2, and the mantle cell lymphoma cell line Mino were tested.
The tumor cell lines were cultured in an incubator at 37° C. and 5% CO2 under the above-mentioned culture conditions. The cells were passaged regularly, and cells in the logarithmic growth phase were taken for plating.
(3). 90 μL of cell suspension was added to each well of the culture plate as shown in the table above, and cell-free culture solution was added to the blank control well.
(4). The culture plates were incubated overnight at 37° C., 5% CO2, and 100% relative humidity in an incubator.
A 400× compound working solution was prepared. The compound was gradually diluted with DMSO from the highest concentration to the lowest concentration. The compound was freshly formulated when use every time.
(1). Formulation of 10× compound working solution: 76 μL of cell culture solution was added to a 96-well plate with a V-shaped bottom, and 4 μL of the compound from a 200× compound solution plate was pipetted and added to the cell culture solution in the 96-well plate. 4 μL of DMSO was added to the vehicle control and blank control. After adding the compound or DMSO, a multi-channel pipette was used for mixing well. 78 μL of cell culture solution was added to a 96-well plate with a V-shaped bottom, and 2 μL of the compound from the 400× compound storage solution was pipetted and added to the cell culture solution in the 96-well plate. 2 μL of DMSO was added to the vehicle control and blank control. After adding the compound or DMSO, a multi-channel pipette was used for mixing well.
(2). Dosing: 10 μL of the 10× compound working solution was taken and added to the cell culture plate. 10 μL mixture of DMSO and cell culture solution was added to the vehicle control and blank control.
(3). The 96-well cell plates were placed back into the incubator to culture OCI-LY10 (5 times dilution, incubate with the compound for 5 days), DOHH2 (3 times dilution, incubate with the compound for 4 days), Mino (3 times dilution, incubate with the compound for 4 days).
The following steps followed the instructions of Promega CellTiter-Glo Luminescence Cell Viability Detection Kit (Promega-G7573).
(6). 50 μL (equal to half the volume of cell culture solution in each well) of CellTiter-Glo working solution was added into each well. The cell plates were wrapped with aluminum foil to protect the cell plate from light.
(9). The luminous signal was detected on the 2104 EnVision plate reader.
The following formula was used to calculate the inhibition rate (IR) of the test compound: IR (%)=(RLU of vehicle control−RLU of compound)/(RLU vehicle control−RLU blank control)*100%. […]
A general note: ATP-based viability assays read luminescence as a measure of living cells.

For the next data set, the system named is DOHH2. The data set can be described thus: Anti-proliferative effect in lymphoma cell line DOHH2 (CellTiter-Glo). The data set is classed as cell-based. Particulars: Homo sapiens, DOHH-2, 96 h; incubate with the compound for 4 days. Here is the method:
(§1) Experiment object: In this experiment, the inhibitory effects of the test compounds on cell proliferation in the diffuse large B-cell lymphoma cell lines OCI-LY10 and DOHH2, and the mantle cell lymphoma cell line Mino were tested. The tumor cell lines were cultured in an incubator at 37° C. and 5% CO2 under the above-mentioned culture conditions. The cells were passaged regularly, and cells in the logarithmic growth phase were taken for plating. (3). 90 μL of cell suspension was added to each well of the culture plate as shown in the table above, and cell-free culture solution was added to the blank control well. (4). The culture plates were incubated overnight at 37° C., 5% CO2, and 100% relative humidity in an incubator. A 400× compound working solution was prepared. The compound was gradually diluted with DMSO from the highest concentration to the lowest concentration. […] The following steps followed the instructions of Promega CellTiter-Glo Luminescence Cell Viability Detection Kit (Promega-G7573). […] The luminous signal was detected on the 2104 EnVision plate reader. […] The inhibition rate of different concentrations of the compound was calculated in Excel, and then GraphPad Prism software was used to draw the inhibition curve and calculate the relevant parameters, including the minimum inhibition rate, the maximum inhibition rate and IC50.

The next data set concerns Mino. Description: Anti-proliferative effect in lymphoma cell line Mino (CellTiter-Glo). The format is cell-based. The note with it: Homo sapiens, 96 h, incubate with the compound for 4 days. Here is the method:
as §1

Where [3] appears, read: 60 mg/kg oral once a day, Day 27.

Where a name gives a salt, the structure may show the parent alone.

As to `CN(C)CCOc1ccc2cc3occ(C4CCC(=O)NC4=O)c3cc2c1` (stereo not drawn) [Hydrochloride salt of WX022], in data set [1], the “oral plasma systemic exposure (AUC0-inf), in words” value is “higher” and the “pharmacokinetic properties in rodent mice, in words” value was “better pharmacokinetic properties”. Besides, the “Area under the concentration-time curve (0-inf)” value in data set [1] (oral 10 mg/kg, plasma) was determined as 7.42 µM·h.
For `O=C1CCC(c2coc3cc4ccccc4cc23)C(=O)N1` (stereo not drawn) [WX001], the “Tumor volume (Day 0)” value in data set [2] (60 mg/kg oral once a day, Day 0, start of administration) is given as 139 mm^3. In addition, in data set [2] (setting [3]), the “TGI (Day 27)” value worked out at 105.5%. Besides, the “Tumor volume (Day 27)” value in data set [2] (setting [3]) was 87 mm^3. Also, the “tumor-shrinking effect, in words” value in data set [2] (human lymphoma OCI-LY10 model) is “significant tumor-shrinking effect”. For the same compound, the IC50 in the data set with OCI-LY10 was determined as 0.028 µM; in the data set with DOHH2 it was 0.063 µM; in the data set with Mino, 0.072 µM.
`Cc1nc2cc3occ(C4CCC(=O)NC4=O)c3cc2o1` (stereo not drawn) [WX005] came in with a concentration for half-maximal inhibition (IC50) with OCI-LY10 of 0.006 µM.
Take `O=C1CCC(c2coc3cc4ccc(OCCN5CCOCC5)cc4cc23)C(=O)N1` (stereo not drawn) [WX015]: in data set [1], the “oral plasma systemic exposure (AUC0-inf), in words” value is given as “higher” and the “pharmacokinetic properties in rodent mice, in words” value is “better pharmacokinetic properties”. Besides, in data set [1] (oral 10 mg/kg, plasma), the “Area under the concentration-time curve (0-inf)” value was 13.29 µM·h, the Peak concentration is 5.14 µM and the Time to peak is on record as 0.50 h.
Take `O=C1CCC(c2coc3cc4c(cc23)OCO4)C(=O)N1` (stereo not drawn) [WX002]: in the data set on OCI-LY10, the IC50 was 0.086 µM.
Still for that read-out and setting: with `O=C1CCC(c2coc3cc4c(cc23)OCCN4)C(=O)N1` (stereo not drawn) [WX003] the figure was 0.083 µM.
